Results taken from patent publication US20230173077A1 (AJK BIOPHARMACEUTICAL, LLC, priority 2020, published 2023).
Where two headings read alike, the source gives them in different places.

Test system: HCoV-229E
Experiment: Antiviral activity and toxicity against HCoV-229E
Assay type: cell-based

Row | SMILES | EC50 (Human coronavirus 229E) [µM] | EC50 [µM]
1 | CCC(CC)COC(=O)[C@H](C)N[P@](=O)(OC[C@H]1O[C@@](C#N)(c2ccc3c(N)ncnn23)[C@H](O)[C@@H]1O)Oc1ccccc1 [RDV, Remdesivir] | 0.07 | 
2 | CCCCCCCCCCCCCC(=O)OCC1OC(n2cc(F)c(N)nc2=O)CS1 (centres unmarked) [5′-O-tetradecanoyl ester conjugate of 2′,3′-dideoxy-5-fluoro-3′-thiacytidine] |  | 82
